Patent publication US20190298674A1 (Ovid Therapeutics, Inc., priority 2018, published 2019)

Key:
in vivo = settings: plasma
From the text: (§1) “PK” refers to the pharmacokinetic profile. Cmax is defined as the highest plasma drug concentration estimated during an experiment (ng/ml). Tmax is defined as the time when Cmax is estimated (min). AUC0-∞ is the total area under the plasma drug concentration-time curve, from drug administration until the drug is eliminated (ng·hr/ml). The area under the curve is governed by clearance. Clearance is defined as the volume of blood or plasma that is totally cleared of its content of drug per unit time (ml/min).

plasma pharmacokinetics = settings: in the dose range 5 mg-500 mg
From the text: as §1

**Q.** What does the source list for `N[C@H]1C[C@@H](C(=O)O)CC1=C(F)F`?
**A.** half-life (in vivo): 240 to 360 min; AUCs dose proportionality (plasma pharmacokinetics): greater than proportional increase
